# Data from patent US20260297060A1, “COMPOUNDS FOR THE DEGRADATION OF MUTANT BRAF” (C4 THERAPEUTICS, INC., priority 2023, published 2026).
# Where two headings read alike, the source gives them in different places.
# Molecular target: T1, BRAF V600E (Homo sapiens, UniProt P15056+Q96SW2, V600E)
# T1 construct: knock-in of the HiBiT tag to the endogenous BRAF V600E locus; host or cells: A375.10 (A375 clonal line, CRISPR HiBiT knock-in at the endogenous BRAF V600E locus)
# Experiment: BRAF V600E HiBiT Degradation Assay
# Assay type: cell-based
# Procedure, shortened: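 Endogenous HiBiT knock-in on BRAF V600E in A375 cells (clone A375.10); 11-point half-log series, top 10 μM, 2, 6 or 24 h at 37° C. Lytic HiBiT luminescence, background-subtracted, normalized to DMSO; 4-parameter fit gives DC50, Emax (residual protein) and IP (inflection point).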
# [1] = A375.10 cells, BRAF V600E, 2 hours, inflection point, read-out: HiBiT-Degradation A375.10 BRAF 2 hours IP
# [2] = A375.10 cells, BRAF V600E, 2 hours, read-out: HiBiT-Degradation A375.10 BRAF 2 hours DC50
# [3] = read-out: HiBiT-Degradation A375.10 BRAF 2 hours Emax, A375.10 cells, BRAF V600E, 2 hours, residual protein remaining
# [4] = A375.10 cells, BRAF V600E, 6 hours, inflection point, read-out: HiBiT-Degradation A375.10 BRAF 6 hours IP
# [5] = A375.10 cells, BRAF V600E, 6 hours, read-out: HiBiT-Degradation A375.10 BRAF 6 hours DC50
# [6] = A375.10 cells, HiBiT, BRAF V600E, 24 hours
# [7] = A375.10 cells, HiBiT, BRAF V600E, 24 hours, read-out: HiBiT-Degradation A375.10 BRAF 24 hours DC50
# [8] = A375.10 cells, HiBiT, BRAF V600E, 24 hours, read-out: HiBiT-Degradation A375.10 BRAF 24 hours IP
# [9] = A375.10 cells, BRAF V600E, 6 hours, residual protein remaining, read-out: HiBiT-Degradation A375.10 BRAF 6 hours Emax
# [10] = A375.10 cells, HiBiT, BRAF V600E, 24 hours, read-out: HiBiT-Degradation A375.10 BRAF 24 hours Emax
# T1 sequence (P15056 whole entry V600E): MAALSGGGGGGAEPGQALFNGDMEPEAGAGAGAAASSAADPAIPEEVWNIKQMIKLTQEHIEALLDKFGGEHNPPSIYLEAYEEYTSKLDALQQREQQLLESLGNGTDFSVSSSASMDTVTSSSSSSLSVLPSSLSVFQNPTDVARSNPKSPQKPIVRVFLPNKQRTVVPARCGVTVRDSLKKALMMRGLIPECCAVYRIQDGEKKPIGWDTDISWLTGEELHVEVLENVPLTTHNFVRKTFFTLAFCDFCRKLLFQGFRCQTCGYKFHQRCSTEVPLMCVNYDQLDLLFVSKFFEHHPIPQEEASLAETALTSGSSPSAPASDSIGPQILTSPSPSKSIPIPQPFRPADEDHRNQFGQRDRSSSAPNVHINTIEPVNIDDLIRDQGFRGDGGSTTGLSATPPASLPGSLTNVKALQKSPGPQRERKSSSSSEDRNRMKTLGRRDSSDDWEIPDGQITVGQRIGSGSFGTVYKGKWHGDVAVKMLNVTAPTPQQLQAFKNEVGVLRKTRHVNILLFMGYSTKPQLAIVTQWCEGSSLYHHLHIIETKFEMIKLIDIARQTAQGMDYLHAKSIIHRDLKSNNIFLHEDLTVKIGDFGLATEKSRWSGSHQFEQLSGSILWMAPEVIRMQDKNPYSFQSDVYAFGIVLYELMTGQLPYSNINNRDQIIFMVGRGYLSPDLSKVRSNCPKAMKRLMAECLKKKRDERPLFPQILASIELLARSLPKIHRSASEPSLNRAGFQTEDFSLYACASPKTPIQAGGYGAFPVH
# T1 sequence (Q96SW2 whole entry): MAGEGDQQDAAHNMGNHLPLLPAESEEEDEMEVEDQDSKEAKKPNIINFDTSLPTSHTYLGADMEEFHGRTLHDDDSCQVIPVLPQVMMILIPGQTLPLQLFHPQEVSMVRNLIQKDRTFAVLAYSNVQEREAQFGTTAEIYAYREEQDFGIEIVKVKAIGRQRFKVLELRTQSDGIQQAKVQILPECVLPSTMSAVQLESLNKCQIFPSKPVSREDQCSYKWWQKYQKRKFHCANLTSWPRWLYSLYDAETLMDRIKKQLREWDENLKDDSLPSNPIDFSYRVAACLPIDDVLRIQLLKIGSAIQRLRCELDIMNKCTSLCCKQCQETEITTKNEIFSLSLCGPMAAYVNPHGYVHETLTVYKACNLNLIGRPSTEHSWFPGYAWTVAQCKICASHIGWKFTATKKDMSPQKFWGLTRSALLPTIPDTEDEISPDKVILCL
# T1 sequence (Q16531 whole entry partner): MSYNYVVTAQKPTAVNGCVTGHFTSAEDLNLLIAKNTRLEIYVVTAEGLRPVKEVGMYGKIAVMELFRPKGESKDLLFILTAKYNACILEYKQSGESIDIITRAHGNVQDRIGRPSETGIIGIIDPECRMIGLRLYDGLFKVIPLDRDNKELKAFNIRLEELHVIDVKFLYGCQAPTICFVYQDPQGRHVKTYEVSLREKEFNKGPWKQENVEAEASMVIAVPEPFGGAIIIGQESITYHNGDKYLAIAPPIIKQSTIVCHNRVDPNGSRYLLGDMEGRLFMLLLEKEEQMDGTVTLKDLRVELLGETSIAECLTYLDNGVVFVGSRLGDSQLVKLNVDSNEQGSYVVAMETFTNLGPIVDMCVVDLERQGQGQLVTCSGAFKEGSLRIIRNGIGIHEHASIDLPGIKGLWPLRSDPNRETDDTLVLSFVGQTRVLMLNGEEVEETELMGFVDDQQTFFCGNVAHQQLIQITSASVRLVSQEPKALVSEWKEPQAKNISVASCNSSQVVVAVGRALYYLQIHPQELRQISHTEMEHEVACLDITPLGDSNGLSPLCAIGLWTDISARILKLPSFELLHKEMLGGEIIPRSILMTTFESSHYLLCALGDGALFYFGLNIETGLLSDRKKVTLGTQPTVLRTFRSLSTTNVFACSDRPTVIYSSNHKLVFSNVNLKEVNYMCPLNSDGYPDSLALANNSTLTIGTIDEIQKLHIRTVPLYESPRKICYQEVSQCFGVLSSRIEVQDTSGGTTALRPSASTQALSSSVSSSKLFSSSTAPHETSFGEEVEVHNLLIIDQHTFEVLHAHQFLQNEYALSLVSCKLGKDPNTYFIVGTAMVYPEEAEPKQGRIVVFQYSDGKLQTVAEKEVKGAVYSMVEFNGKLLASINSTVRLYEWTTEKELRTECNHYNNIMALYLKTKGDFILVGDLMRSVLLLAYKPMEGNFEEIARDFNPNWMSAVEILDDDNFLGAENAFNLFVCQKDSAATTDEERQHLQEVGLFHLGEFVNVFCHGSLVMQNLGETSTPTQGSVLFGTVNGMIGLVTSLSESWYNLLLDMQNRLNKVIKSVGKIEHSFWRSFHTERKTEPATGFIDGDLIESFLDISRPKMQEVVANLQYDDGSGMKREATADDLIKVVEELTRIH
Compound,DC50 [1] [nM],DC50 [2] [nM],Emax [3] [%],DC50 [4] [nM],DC50 [5] [nM],DC50 [7] [nM],DC50 [8] [nM],Emax [9] [%],Emax [10] [%],other results
"CCN(C)S(=O)(=O)Nc1ccc(F)c(Oc2ccc3ncn([C@H]4COC5(CCC(N6CCC(c7cc8c(cc7F)c(N7CCC(=O)NC7=O)nn8C)C(F)(F)C6)CC5)C4)c(=O)c3c2)c1C#N (single isomer, unassigned) [Compound 39]",< 1000,< 1000,,< 1000,< 1000,< 1000,< 1000,,,"HiBiT-Degradation A375.10 BRAF 2 hours Emax: *** (<=50%); HiBiT-Degradation A375.10 BRAF 6 hours Emax (A375.10 cells, BRAF V600E, 6 hours, residual protein remaining): *** (<=50%); HiBiT-Degradation A375.10 BRAF 24 hours Emax [6]: *** (<=50%)"
"CCN(C)S(=O)(=O)Nc1ccc(F)c(Oc2ccc3ncc([C@@H]4COC5(CCN(C6CCC(c7cc8c(cc7F)c(N7CCC(=O)NC7=O)nn8C)CC6)CC5)C4)nc3c2)c1C#N (single isomer, unassigned) [Compound 54]",< 1000,< 1000,< 50,< 1000,< 1000,< 1000,< 1000,< 50,< 50,
"CCN(C)S(=O)(=O)Nc1ccc(F)c(Oc2ccc3ncn([C@H]4COC5(CCN(C6CC(c7cc8c(cc7F)c(N7CCC(=O)NC7=O)nn8C)C6)CC5)C4)c(=O)c3c2)c1C#N (single isomer, unassigned) [Compound 70]",,,,,,,,< 50,< 50,"HiBiT-Degradation A375.10 BRAF 2 hours IP (A375.10 cells, BRAF V600E, 2 hours, inflection point): *** (<=1 μM); Emax (A375.10 cells, BRAF V600E, 2 hours, residual protein remaining, read-out: HiBiT-Degradation A375.10 BRAF 2 hours Emax): < 50%; HiBiT-Degradation A375.10 BRAF 6 hours IP (A375.10 cells, BRAF V600E, 6 hours, inflection point): *** (<=1 μM); HiBiT-Degradation A375.10 BRAF 24 hours IP [6]: *** (<=1 μM); DC50 (read-out: HiBiT-Degradation A375.10 BRAF 2 hours DC50, A375.10 cells, BRAF V600E, 2 hours): < 1000 nM; DC50 (read-out: HiBiT-Degradation A375.10 BRAF 6 hours DC50, A375.10 cells, BRAF V600E, 6 hours): < 1000 nM; DC50 (read-out: HiBiT-Degradation A375.10 BRAF 24 hours DC50, A375.10 cells, HiBiT, BRAF V600E, 24 hours): < 1000 nM"

# Further lines, with some results ahead:
DC50 [1] [nM],DC50 [2] [nM],Emax [3] [%],DC50 [4] [nM],DC50 [5] [nM],DC50 [7] [nM],DC50 [8] [nM],Emax [9] [%],Emax [10] [%],Compound,other results
< 1000,1000 to 10000,50 to 90,,,,,,,"CCN(C)S(=O)(=O)Nc1ccc(F)c(Oc2ccc3ncc([C@H]4COC5(CCN(C6CC7(C6)CN(c6cc8c(cc6F)c(N6CCC(=O)NC6=O)nn8C)C7)CC5)C4)nc3c2)c1C#N [Compound 158, (3S)-3-[7-[2-cyano-3-[[ethyl(methyl)sulfamoyl]amino]-6-fluoro-phenoxy]quinoxalin-2-yl]-8-[2-[3-(2,4-dioxohexahydropyrimidin-1-yl)-5-fluoro-1-methyl-indazol-6-yl]-2-azaspiro[3.3]heptan-6-yl]-1-oxa-8-azaspiro[4.5]decane]",
< 1000,< 1000,< 50,,,,,,,"CCN(C)S(=O)(=O)Nc1ccc(F)c(Oc2ccc3ncc([C@H]4COC5(CCN(C6CCC(c7cc8c(cc7F)c(N7CCC(=O)NC7=O)nn8C)CC6F)CC5)C4)nc3c2)c1C#N (single isomer, unassigned) [Compound 160]",
< 1000,< 1000,< 50,< 1000,< 1000,< 1000,< 1000,< 50,< 50,"CCN(C)S(=O)(=O)Nc1ccc(F)c(Oc2ccc3ncc(C4CC5(CCN(C6CC7(C6)CN(c6cc8c(cc6F)c(N6CCC(=O)NC6=O)nn8C)C7)CC5)C4)nc3c2)c1C#N (stereo not drawn) [Compound 177, 7-[2-cyano-3-[[ethyl(methyl)sulfamoyl]amino]-6-fluoro-phenoxy]-2-[7-[2-[3-(2,4-dioxohexahydropyrimidin-1-yl)-5-fluoro-1-methyl-indazol-6-yl]-2-azaspiro[3.3]heptan-6-yl]-7-azaspiro[3.5]nonan-2-yl]quinoxaline]",
< 1000,< 1000,< 50,,,,,,,"Cn1nc(N2CCC(=O)NC2=O)c2cc(F)c(N3CC4(CC(N5CCC6(CC5)CC(n5cnc7ccc(Oc8c(F)ccc(NS(=O)(=O)N9C[C@H]%10C[C@H]%10C9)c8C#N)cc7c5=O)C6)C4)C3)cc21 (stereo partly drawn) [Compound 277, (1R,5S)-N-[2-cyano-3-[3-[7-[2-[3-(2,4-dioxohexahydropyrimidin-1-yl)-5-fluoro-1-methyl-indazol-6-yl]-2-azaspiro[3.3]heptan-6-yl]-7-azaspiro[3.5]nonan-2-yl]-4-oxo-quinazolin-6-yl]oxy-4-fluoro-phenyl]-3-azabicyclo[3.1.0]hexane-3-sulfonamide]",
